Results published in US10273226B2, “Pyrazolyl-heteroarylamides as pesticides” (Bayer Animal Health GmbH, priority 2014, dated 2019).

The compounds below were run on Ctenocephalides felis (assay: Ctenocephalides felis oral test). Details: application rate 100 ppm in citrated cattle blood; after 2 days.
Format: in vivo
In short: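 Oral exposure of unfed adult fleas, roughly 20 per chamber, to compound-spiked citrated cattle blood taken up across a parafilm membrane. Read-out is percent kill at 2 days, where 100% means every flea dead.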
For Cc1ncc(-c2cnn(-c3c(C(F)(F)F)c(C(F)(F)C(F)(F)F)nn3C)c2)cc1NC(=O)c1ccncc1 [Example 2-004], the “efficacy (kill in %)” value was 100%.
In the case of Cn1nc(C(F)(F)C(F)(F)F)c(C(F)(F)F)c1-n1cc(-c2cccc(NC(=O)CC(F)(F)F)c2)cn1 [Example 1-007], the “efficacy (kill in %)” value was 100%.
Cn1nc(C(F)(F)C(F)(F)F)c(C(F)(F)F)c1-n1cc(-c2ccc(F)c(NC(=O)c3ccc(Cl)c(F)c3)c2)cn1 [Example 1-096] was tested, and the “efficacy (kill in %)” value was 100%.
In the case of Cn1nc(C(F)(F)C(F)(F)F)c(C(F)(F)F)c1-n1cc(-c2cnc(F)c(NC(=O)c3ccncc3)c2)cn1 [Example 2-005], the “efficacy (kill in %)” value was 100%.
In the case of Cn1cc(C(=O)Nc2cc(-c3cnn(-c4c(C(F)(F)F)c(C(F)(F)C(F)(F)F)nn4C)c3)ccc2F)cn1 [Example 1-035], the “efficacy (kill in %)” value was 100%.

Each compound was assayed on Rhipicephalus sanguineus (assay: Rhipicephalus sanguineus in vitro contact test with adult brown dog ticks). Details: application rate 1 μg/cm^2 (100 g/ha); after 48 h; ticks dead or moribund.
Format: in vivo
In short: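 Test tubes (25 ml) were coated by dissolving active ingredient in acetone p.a., diluting to the required concentration, and spreading 250 μl over the inner walls and base on an orbital shaker at 30 rpm for 2 h. Once dry, 5-10 adult Rhipicephalus sanguineus were added, and tubes were capped with perforated lids and kept horizontal in darkness at room temperature. At 48 h, ticks were knocked down and heated at 45-50° C. for up to 5 min. Those unable to climb away were counted dead or moribund, and efficacy ran from 0% to 100%.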
For Cn1nc(C(F)(F)C(F)(F)F)c(C(F)(F)F)c1-n1cc(-c2cnc(F)c(NC(=O)c3ccncc3)c2)cn1 [Example 2-005], the efficacy was 80%.

Same assay, conditions: application rate 5 μg/cm^2 (500 g/ha); after 48 h; ticks dead or moribund
Cn1nc(C(F)(F)C(F)(F)F)c(C(F)(F)F)c1-n1cc(-c2cccc(NC(=O)CC(F)(F)F)c2)cn1 [Example 1-007] showed an efficacy of 100%.
Cn1nc(C(F)(F)C(F)(F)F)c(C(F)(F)F)c1-n1cc(-c2ccc(F)c(NC(=O)c3ccc(Cl)c(F)c3)c2)cn1 [Example 1-096] showed an efficacy of 100%.
In the case of Cn1cc(C(=O)Nc2cc(-c3cnn(-c4c(C(F)(F)F)c(C(F)(F)C(F)(F)F)nn4C)c3)ccc2F)cn1 [Example 1-035], the efficacy was 80%.

What follows are compounds tested on Spodoptera frugiperda (assay: Spodoptera frugiperda spray test). Details: application rate 100 g/ha; caterpillars; after 7 days.
Format: in vivo
In short: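 Maize leaf discs were sprayed with compound formulated in solvent plus water containing 1000 ppm emulsifier, dried, then infested with Spodoptera frugiperda caterpillars. Efficacy in % mortality was scored after 7 days (100% all killed, 0% none).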
Cc1ncc(-c2cnn(-c3c(C(F)(F)F)c(C(F)(F)C(F)(F)F)nn3C)c2)cc1NC(=O)c1ccncc1 [Example 2-004] showed an efficacy of 100%.
In the case of Cn1nc(C(F)(F)C(F)(F)F)c(C(F)(F)F)c1-n1cc(-c2cccc(NC(=O)CC(F)(F)F)c2)cn1 [Example 1-007], the efficacy was 100%.
With Cn1nc(C(F)(F)C(F)(F)F)c(C(F)(F)F)c1-n1cc(-c2ccc(F)c(NC(=O)c3ccc(Cl)c(F)c3)c2)cn1 [Example 1-096] the efficacy was 100%.
Compound Cn1nc(C(F)(F)C(F)(F)F)c(C(F)(F)F)c1-n1cc(-c2cnc(F)c(NC(=O)c3ccncc3)c2)cn1 [Example 2-005] has an efficacy of 100%.
Cn1cc(C(=O)Nc2cc(-c3cnn(-c4c(C(F)(F)F)c(C(F)(F)C(F)(F)F)nn4C)c3)ccc2F)cn1 [Example 1-035] was tested, and the efficacy was 100%.

What follows are compounds tested on Boophilus microplus (assay: Boophilus microplus injection test). Details: application rate 20 μg/animal; injection into abdomen; assessed after 7 days.
Format: in vivo
In short: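 Engorged adult female Boophilus microplus ticks (5 per dose) each received a 1 μl abdominal injection of compound in DMSO and were held in a climate-controlled room. Efficacy was scored after 7 days from fertile egg laying, with unclear eggs kept until hatching (~42 days); 100% means no fertile eggs.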
With Cc1ncc(-c2cnn(-c3c(C(F)(F)F)c(C(F)(F)C(F)(F)F)nn3C)c2)cc1NC(=O)c1ccncc1 [Example 2-004] the “efficacy (laying of fertile eggs)” value was 100%.
For Cn1nc(C(F)(F)C(F)(F)F)c(C(F)(F)F)c1-n1cc(-c2cccc(NC(=O)CC(F)(F)F)c2)cn1 [Example 1-007], the “efficacy (laying of fertile eggs)” value was 100%.
In the case of Cn1nc(C(F)(F)C(F)(F)F)c(C(F)(F)F)c1-n1cc(-c2ccc(F)c(NC(=O)c3ccc(Cl)c(F)c3)c2)cn1 [Example 1-096], the “efficacy (laying of fertile eggs)” value was 100%.
With Cn1nc(C(F)(F)C(F)(F)F)c(C(F)(F)F)c1-n1cc(-c2cnc(F)c(NC(=O)c3ccncc3)c2)cn1 [Example 2-005] the “efficacy (laying of fertile eggs)” value was 100%.
Cn1cc(C(=O)Nc2cc(-c3cnn(-c4c(C(F)(F)F)c(C(F)(F)C(F)(F)F)nn4C)c3)ccc2F)cn1 [Example 1-035] was tested, and the “efficacy (laying of fertile eggs)” value was 100%.

These compounds were tested on Musca domestica (assay: Musca domestica test). Details: application rate 100 ppm; adult houseflies; after 2 days.
Format: in vivo
Protocol: Solvent: dimethyl sulphoxide
To produce an appropriate active ingredient formulation, 10 mg of active ingredient are mixed with 0.5 ml of dimethyl sulphoxide, and the concentrate is diluted with water to the desired concentration.
Vessels containing a sponge treated with sugar solution and the active ingredient formulation of the desired concentration are populated with 10 adult houseflies (Musca domestica).
After 2 days, the kill in % is determined. 100% means that all of the flies have been killed; 0% means that none of the flies have been killed.
Cc1ncc(-c2cnn(-c3c(C(F)(F)F)c(C(F)(F)C(F)(F)F)nn3C)c2)cc1NC(=O)c1ccncc1 [Example 2-004] was tested, and the “efficacy (kill in %)” value was 80%.
In the case of Cn1nc(C(F)(F)C(F)(F)F)c(C(F)(F)F)c1-n1cc(-c2cccc(NC(=O)CC(F)(F)F)c2)cn1 [Example 1-007], the “efficacy (kill in %)” value was 100%.
In the case of Cn1nc(C(F)(F)C(F)(F)F)c(C(F)(F)F)c1-n1cc(-c2ccc(F)c(NC(=O)c3ccc(Cl)c(F)c3)c2)cn1 [Example 1-096], the “efficacy (kill in %)” value was 90%.
In the case of Cn1nc(C(F)(F)C(F)(F)F)c(C(F)(F)F)c1-n1cc(-c2cnc(F)c(NC(=O)c3ccncc3)c2)cn1 [Example 2-005], the “efficacy (kill in %)” value was 90%.
In the case of Cn1cc(C(=O)Nc2cc(-c3cnn(-c4c(C(F)(F)F)c(C(F)(F)C(F)(F)F)nn4C)c3)ccc2F)cn1 [Example 1-035], the “efficacy (kill in %)” value was 100%.

Each compound was assayed on Tetranychus urticae (assay: Tetranychus urticae spray test, OP-resistant). Details: application rate 20 g/ha; after 6 days.
Format: in vivo
In short: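 Bean leaf discs (Phaseolus vulgaris) carrying all stages of OP-resistant mites are sprayed with compound formulated in solvent and emulsifier-containing water. Efficacy (% mites killed) is scored after 6 days.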
Cn1nc(C(F)(F)C(F)(F)F)c(C(F)(F)F)c1-n1cc(-c2cnc(F)c(NC(=O)c3ccncc3)c2)cn1 [Example 2-005] gave an efficacy of 100%.

Same assay, conditions: application rate 100 g/ha; after 6 days
In the case of Cc1ncc(-c2cnn(-c3c(C(F)(F)F)c(C(F)(F)C(F)(F)F)nn3C)c2)cc1NC(=O)c1ccncc1 [Example 2-004], the efficacy was 100%.
Compound Cn1nc(C(F)(F)C(F)(F)F)c(C(F)(F)F)c1-n1cc(-c2cccc(NC(=O)CC(F)(F)F)c2)cn1 [Example 1-007] has an efficacy of 90%.
Cn1nc(C(F)(F)C(F)(F)F)c(C(F)(F)F)c1-n1cc(-c2ccc(F)c(NC(=O)c3ccc(Cl)c(F)c3)c2)cn1 [Example 1-096] gave an efficacy of 100%.
For Cn1cc(C(=O)Nc2cc(-c3cnn(-c4c(C(F)(F)F)c(C(F)(F)C(F)(F)F)nn4C)c3)ccc2F)cn1 [Example 1-035], the efficacy was 100%.

Each compound was assayed on Ctenocephalides felis (assay: Ctenocephalides felis in vitro contact test with adult cat fleas). Details: application rate 5 μg/cm^2 (500 g/ha); after 48 h; fleas dead or moribund.
Format: in vivo
Protocol: Ctenocephalides felis—In Vitro Contact Tests with Adult Cat Fleas
For the coating of the test tubes, 9 mg of active ingredient are first dissolved in 1 ml of acetone p.a. and then diluted to the desired concentration with acetone p.a. 250 μl of the solution are distributed homogeneously on the inner walls and base of a 25 ml test tube by turning and rocking on an orbital shaker (rocking rotation at 30 rpm for 2 h). With 900 ppm active ingredient solution and internal surface 44.7 cm^2, given homogeneous distribution, an area-based dose of 5 μg/cm^2 is achieved.
After the solvent has evaporated off, the tubes are populated with 5-10 adult cat fleas (Ctenocephalides felis), sealed with a perforated plastic lid and incubated in a horizontal position at room temperature and ambient humidity. After 48 h, efficacy is determined. To this end, the test tubes are stood upright and the fleas are knocked to the base of the tube. Fleas which remain motionless at the base or move in an uncoordinated manner are considered to be dead or moribund.
100% efficacy means that all the fleas were dead or moribund. 0% efficacy means that no fleas were harmed.
Cn1nc(C(F)(F)C(F)(F)F)c(C(F)(F)F)c1-n1cc(-c2ccc(F)c(NC(=O)c3ccc(Cl)c(F)c3)c2)cn1 [Example 1-096] was tested, and the efficacy was 100%.
Cn1nc(C(F)(F)C(F)(F)F)c(C(F)(F)F)c1-n1cc(-c2cnc(F)c(NC(=O)c3ccncc3)c2)cn1 [Example 2-005] was tested, and the efficacy was 100%.

These compounds were tested on Lucilia cuprina (assay: Lucilia cuprina test). Details: application rate 100 ppm; L1 larvae; after 2 days.
Format: in vivo
In short: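 About 20 L1 larvae placed in vessels with minced horsemeat treated with compound (DMSO concentrate diluted in water) at the desired concentration. Kill (%) scored after 2 days; 100% means all larvae dead, 0% none.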
For Cc1ncc(-c2cnn(-c3c(C(F)(F)F)c(C(F)(F)C(F)(F)F)nn3C)c2)cc1NC(=O)c1ccncc1 [Example 2-004], the “efficacy (kill in %)” value was 100%.
In the case of Cn1nc(C(F)(F)C(F)(F)F)c(C(F)(F)F)c1-n1cc(-c2cccc(NC(=O)CC(F)(F)F)c2)cn1 [Example 1-007], the “efficacy (kill in %)” value was 100%.
Cn1nc(C(F)(F)C(F)(F)F)c(C(F)(F)F)c1-n1cc(-c2ccc(F)c(NC(=O)c3ccc(Cl)c(F)c3)c2)cn1 [Example 1-096] was tested, and the “efficacy (kill in %)” value was 100%.
With Cn1nc(C(F)(F)C(F)(F)F)c(C(F)(F)F)c1-n1cc(-c2cnc(F)c(NC(=O)c3ccncc3)c2)cn1 [Example 2-005] the “efficacy (kill in %)” value was 100%.
With Cn1cc(C(=O)Nc2cc(-c3cnn(-c4c(C(F)(F)F)c(C(F)(F)C(F)(F)F)nn4C)c3)ccc2F)cn1 [Example 1-035] the “efficacy (kill in %)” value was 100%.

Each compound was assayed on Phaedon cochleariae (assay: Phaedon cochleariae spray test). Details: application rate 100 g/ha; larvae; after 7 days.
Format: in vivo
In short: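 Chinese cabbage leaf discs were sprayed with the compound formulated in water containing 1000 ppm emulsifier. After drying, they were infested with mustard beetle larvae. Efficacy was scored as % larvae killed after 7 days (100% = all dead, 0% = none).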
Work on Cc1ncc(-c2cnn(-c3c(C(F)(F)F)c(C(F)(F)C(F)(F)F)nn3C)c2)cc1NC(=O)c1ccncc1 [Example 2-004] yielded an efficacy of 100%.
Compound Cn1nc(C(F)(F)C(F)(F)F)c(C(F)(F)F)c1-n1cc(-c2cccc(NC(=O)CC(F)(F)F)c2)cn1 [Example 1-007] has an efficacy of 100%.
Cn1nc(C(F)(F)C(F)(F)F)c(C(F)(F)F)c1-n1cc(-c2ccc(F)c(NC(=O)c3ccc(Cl)c(F)c3)c2)cn1 [Example 1-096] was tested, and the efficacy was 100%.
In the case of Cn1nc(C(F)(F)C(F)(F)F)c(C(F)(F)F)c1-n1cc(-c2cnc(F)c(NC(=O)c3ccncc3)c2)cn1 [Example 2-005], the efficacy was 100%.
Cn1cc(C(=O)Nc2cc(-c3cnn(-c4c(C(F)(F)F)c(C(F)(F)C(F)(F)F)nn4C)c3)ccc2F)cn1 [Example 1-035] gave an efficacy of 100%.
